{
  "source": "patent US20070148710A1",
  "about": "“Cpt resistant cell line” (priority 2003, published 2007)",
  "type_in_all_cases": "cell-based, human",
  "key": {"SW948CPTL cells": {"system": "SW948CPTL cells", "assay": "intracellular accumulation of CPT-11 (HPLC), effect of verapamil", "conditions": "SW948CPTL", "description": "(§1) 10. […] Cells were washed, trypsinized, and counted. Cell pellets were lysed with water and sonicated. […] Results were generated from three independent experiments. […] Data are expressed as mean±SD. […] Data are the mean±SD of two experiments done in triplicate.\n(§2) Additionally, multidrug resistance can be evaluated by measuring the expression level of p-glycoprotein (p-gp) (Juliano et al Biochim Biophys Acta 11:152-162, 1976) and breast cancer resistant protein (BCRP) (Doyle et al Proc Natl Acad Sci U S A 95:15665-15670, 1998) in SW948 and the resistant SW948 cell lines (SW948CPTH and SW948CPTL). It is understood that the disclosed methods can also be used with other cell lines including other colon cancer cell lines. For example, the disclosed methods can be used with LS174T, WiDr, HT-29, SW403, DLD-1, SW480, SNU-C1, Caco-2, and COLO 205 cell lines."}, "SW948CPTH cells [1]": {"system": "SW948CPTH cells", "assay": "intracellular accumulation of CPT-11 (HPLC), effect of verapamil", "conditions": "SW948CPTH; 10 μM verapamil with CPT-11 160 μM, 2 hours", "description": "as §1, §2"}, "SW948CPTL": {"system": "SW948CPTL", "assay": "cell proliferation assay, cross-resistance to topoisomerase I and II inhibitors", "description": "(§3) Drug resistance to other topoisomerase I and II inhibitors was examined by determining the IC50 dose of each drug using a cell proliferation assay as shown in Table 3."}, "SW948": {"system": "SW948", "assay": "cell proliferation assay, cross-resistance to topoisomerase I and II inhibitors", "conditions": "SW948 parental, mean ± SD, 2-4 independent assays; for IC50: Homo sapiens, read-out: Sensitivity expressed as IC50", "description": "as §3"}, "SW948CPTH": {"system": "SW948CPTH", "assay": "cell proliferation assay, cross-resistance to topoisomerase I and II inhibitors", "conditions": "for IC50: Homo sapiens, read-out: Sensitivity expressed as IC50; for change in resistance of SW948CPTH cells compared to the parental cell line SW948: IC50 by cell proliferation assay (Table 3)", "description": "as §3"}, "SW948CPTH cells [2]": {"system": "SW948CPTH cells", "assay": "change of CPT-11 IC50 (clonogenic assay) by verapamil, amiloride or EIPA", "description": "as §1\n12. […] Cells were plated on glass coverslips and cultured overnight. Intracellular pH was measured with a fluorescence spectrophotometer after cells were loaded with the pH-sensitive fluorescence dye, BCECF. The data represent the mean±SD of 60 individual cells. […] After 24 h the drugs were removed, cells washed with PBS and drug-free culture medium added to the cell cultures. Data represent the mean±SD from three assays done in triplicate with SW948CPTH cells and two assays done in triplicate for SW948CPTL cells."}, "SW948CPTH cells [3]": {"system": "SW948CPTH cells", "assay": "intracellular pH (BCECF fluorescence)", "description": "12. […] Cells were plated on glass coverslips and cultured overnight."}, "SW948CPTL cell line": {"system": "SW948CPTL cell line", "assay": "SN38 IC50 determination"}, "SW948 cell line": {"system": "SW948 cell line", "assay": "SN38 IC50 determination"}, "SW948CPTH cell line": {"system": "SW948CPTH cell line", "assay": "SN38 IC50 determination"}},
  "data": [
    {"smiles": "COc1ccc(CCN(C)CCCC(C#N)(c2ccc(OC)c(OC)c2)C(C)C)cc1OC", "note": "(stereo not drawn) [Verapamil]", "values": [
      {"measurement": "intracellular concentration of CPT-11 with verapamil relative to SW948 parent cells", "setting": "SW948CPTL cells; 10 μM verapamil", "value": 2.4, "unit": "times"},
      {"measurement": "effect on intracellular concentration of CPT-11", "setting": "SW948CPTL cells; 10 μM verapamil with CPT-11 160 μM, 2 hours", "value": "increased"},
      {"measurement": "effect on intracellular concentration of CPT-11", "setting": "SW948CPTH cells [1]", "value": "increased the intracellular concentration of CPT-11 to a level similar to the SW948 parent cells"}
    ]},
    {"smiles": "COc1cc([C@@H]2c3cc4c(cc3[C@@H](O[C@@H]3O[C@@H]5CO[C@@H](C)O[C@H]5[C@H](O)[C@H]3O)[C@H]3COC(=O)[C@H]23)OCO4)cc(OC)c1O", "note": "[Etoposide]", "values": [
      {"measurement": "IC50", "setting": "SW948CPTL; Homo sapiens, read-out: Sensitivity expressed as IC50", "value": "1.8 ± 0.3", "unit": "µg/mL"},
      {"measurement": "increase in resistance by SW948CPTL cells compared to the parental cell line SW948", "setting": "SW948CPTL; IC50 by cell proliferation assay (Table 3)", "value": 2, "unit": "fold"},
      {"measurement": "IC50", "setting": "SW948", "value": "0.9 ± 0.1", "unit": "µg/mL"},
      {"measurement": "IC50", "setting": "SW948CPTH", "value": "0.9 ± 0.1", "unit": "µg/mL"},
      {"measurement": "change in resistance of SW948CPTH cells compared to the parental cell line SW948", "setting": "SW948CPTH", "value": "no change in resistance"}
    ]},
    {"smiles": "N=C(N)NC(=O)c1nc(Cl)c(N)nc1N", "note": "[Amiloride]", "values": [
      {"measurement": "effect on resistance of the cells to CPT-11", "setting": "SW948CPTH cells [2]; SW948CPTH, amiloride 300 μM with CPT-11 24 h (FIG. 8B)", "value": "decreased the resistance"},
      {"measurement": "effect on intracellular pH", "setting": "SW948CPTH cells [3]", "value": "lowered"},
      {"measurement": "intracellular pH in the presence of amiloride", "setting": "SW948CPTH cells [3]; from about 6.98 without amiloride (FIG. 8A)", "value": "about 6.85"}
    ]},
    {"smiles": "CC[C@@]1(O)C(=O)OCc2c1cc1n(c2=O)Cc2cc3ccccc3nc2-1", "note": "[CPT]", "values": [
      {"measurement": "IC50", "setting": "SW948", "value": "0.1 ± 0.1", "unit": "µg/mL"},
      {"measurement": "IC50", "setting": "SW948CPTH", "value": "0.6 ± 0.6", "unit": "µg/mL"},
      {"measurement": "change in resistance of SW948CPTH cells compared to the parental cell line SW948", "setting": "SW948CPTH", "value": "increased resistance"}
    ]},
    {"smiles": "CCc1c2c(nc3ccc(O)cc13)-c1cc3c(c(=O)n1C2)COC(=O)[C@]3(O)CC", "note": "[SN38]", "values": [
      {"measurement": "SN38 IC50", "setting": "SW948CPTL cell line", "value": "1.8 ± 0.2", "unit": "µg/mL"},
      {"measurement": "SN38 IC50", "setting": "SW948 cell line", "value": "0.2 ± 0.01", "unit": "µg/mL"},
      {"measurement": "SN38 IC50", "setting": "SW948CPTH cell line", "value": "1.5 ± 0.1", "unit": "µg/mL"}
    ]},
    {"smiles": "CC1(C)CCC2=C(O1)c1ccccc1C(=O)C2=O", "note": "[Lapachone]", "values": [
      {"measurement": "IC50", "setting": "SW948", "value": "1.1 ± 0.2", "unit": "µg/mL"},
      {"measurement": "IC50", "setting": "SW948CPTH", "value": "0.8 ± 0.2", "unit": "µg/mL"},
      {"measurement": "change in resistance of SW948CPTH cells compared to the parental cell line SW948", "setting": "SW948CPTH", "value": "No change"}
    ]},
    {"smiles": "CC[C@@]1(O)C(=O)OCc2c1cc1n(c2=O)Cc2cc3cc(O)ccc3nc2-1", "note": "[10-OH-CPT]", "values": [
      {"measurement": "Sensitivity expressed as IC50", "setting": "SW948", "value": "0.4 ± 0.3", "unit": "µg/mL"},
      {"measurement": "change in resistance of SW948CPTH cells compared to the parental cell line SW948", "setting": "SW948CPTH", "value": "increased resistance"},
      {"measurement": "Sensitivity expressed as IC50", "setting": "SW948CPTH; SW948CPTH treated with 20 μg/ml CPT-11 for 62 days, then >22 days without CPT-11, mean ± SD", "value": "2.1 ± 1.0", "unit": "µg/mL"}
    ]},
    {"smiles": "CCN(c1nc(N)c(C(=O)N=C(N)N)nc1Cl)C(C)C", "note": "[EIPA, 5-(N-ethyl-N-isopropyl)amiloride]", "values": [
      {"measurement": "effect on resistance of cells to CPT-11", "setting": "SW948CPTH cells [2]; EIPA 3 or 10 μM with CPT-11 24 h, FIG. 8B covers SW948CPTH and SW948CPTL", "value": "decreased the resistance"}
    ]}
  ]
}
